According to EP1200395B1, “UREA DERIVATIVES AS INHIBITORS OF CCR-3 RECEPTOR” (KIRIN BEER KABUSHIKI KAISHA, priority 1999, dated 2001):

These compounds were tested against T1, CCR-3 (Homo sapiens, UniProt P51677) (assay: Eotaxin-induced chemotaxis of CCR-3 transfectant cells (CCR3/U937)). Conditions: 10 µM test compound; eotaxin 1 x 10^-9 M; CCR3/U937 cells (Table 3a).
T1 sequence (P51677 1-355): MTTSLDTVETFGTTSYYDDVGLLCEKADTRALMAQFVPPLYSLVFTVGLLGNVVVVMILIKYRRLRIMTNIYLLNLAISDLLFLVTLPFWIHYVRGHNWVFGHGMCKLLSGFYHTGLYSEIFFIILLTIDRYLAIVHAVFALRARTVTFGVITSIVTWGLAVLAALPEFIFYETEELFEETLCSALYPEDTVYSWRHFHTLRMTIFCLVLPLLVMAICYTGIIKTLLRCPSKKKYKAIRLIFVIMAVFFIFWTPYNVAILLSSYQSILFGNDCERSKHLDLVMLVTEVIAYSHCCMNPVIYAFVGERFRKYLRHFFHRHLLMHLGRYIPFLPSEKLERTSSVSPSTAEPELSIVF
Type: cell-based
Design: expressed in transfected cells; host or cells: U937

Compound | Chemotaxis Assay 10 µM (inhibition %) [%]
COC(=O)CCCCN(CCCNC(=O)Nc1ccc(Br)cc1)C1CCCc2ccccc21 (stereo not drawn) [Compound 213] | 92
O=C(O)CCCN(CCCNC(=O)Nc1cccc2ccccc12)C1CCCc2ccccc21 (stereo not drawn) [Compound 90] | 100
COC(=O)CCCN(CCCNC(=O)Nc1ccc(Br)cc1)C1CCc2ccccc21 (stereo not drawn) [Compound 176] | 75
N#Cc1cccc(NC(=O)NCCCN(CCCC(=O)O)C2CCCc3ccccc32)c1 (stereo not drawn) [Compound 260] | 100
CCOC(=O)CCCN(CCCNC(=O)Nc1ccc(Br)cc1)C1CCCc2ccccc21 (stereo not drawn) [Compound 184, Ethyl 4-[[3-(4-bromophenylureido)propyl](1,2,3,4-tetrahydro-1-naphthyl)amino]burylate] | 100
COC(=O)CCCN(CCCNC(=O)Nc1ccccc1Br)C1CCCc2ccccc21 (stereo not drawn) [Compound 189] | 94
COC(=O)CCCN(CCCNC(=O)Nc1ccccc1)C1CCCc2ccccc21 (stereo not drawn) [Compound 56] | 100
COC(=O)CCCN(CCCNC(=O)Nc1ccc(Br)cc1)[C@@H]1CCc2ccccc21 [Compound 178, Methyl 4-[[3-(4-bromophenylureido)propyl][(1R)-1-indanyl]amino]butylate] | 100
O=C(O)CCCN(CCCNC(=O)Nc1cccc(Br)c1)C1CCCc2ccccc21 (stereo not drawn) [Compound 199] | 100
COC(=O)CCCN(CCCNC(=O)Nc1ccccc1Br)C(C)(C)c1ccccc1 [Compound 194] | 100
COC(=O)CCCN(CCCNC(=O)Nc1cccc2ccccc12)C1CCCc2ccccc21 (stereo not drawn) [Compound 59] | 87
O=C(NCCCN(CCCO)C1CCCc2ccccc21)Nc1ccc(Br)cc1 (stereo not drawn) [Compound 216] | 100

Further lines, results first:

Chemotaxis Assay 10 µM (inhibition %) [%] | Compound
78 | O=C(O)CCCN(CCCNC(=O)Nc1ccc(Br)cc1)CCc1ccc(Cl)cc1 [Compound 79]
100 | O=C(NCCCN(CCc1ccc(Cl)cc1)Cc1ccncc1)Nc1ccccc1 [Compound 24]
100 | CCN(CCCNC(=O)Nc1ccccc1)CCc1ccc(F)cc1 [Compound 230]
100 | COCCN(CCCNC(=O)Nc1ccccc1)CCc1ccc(Cl)cc1 [Compound 275]
89 | O=C(O)CCCN(CCCNC(=O)Nc1ccc(Br)cc1)C1CCc2ccccc21 (stereo not drawn) [Compound 177]
56 | COc1cc(CN(CCCNC(=O)Nc2ccccc2)CCc2ccc(Cl)cc2)cc(OC)c1 [Compound 292]
100 | CC(c1cccc2ccccc12)N(CCCNC(=O)Nc1ccc(Br)cc1)CCCC(=O)O (stereo not drawn) [Compound 268]
60 | O=C(NCCCN(CCc1cccc(Cl)c1)Cc1ccccc1)Nc1ccccc1 [Compound 280]
100 | O=C(O)CCCN(CCCNC(=O)Nc1cccc(Cl)c1)C1CCCc2ccccc21 (stereo not drawn) [Compound 82]

Same assay, conditions: 10 µM test compound; eotaxin 1 x 10^-9 M; CCR3/U937 cells (Table 3c)

Chemotaxis Assay 10 µM (inhibition %) [%] | Compound
100 | CC[N+](CCCNC(=O)Nc1ccccc1)(CCc1ccc(Cl)cc1)CC(N)=O.[I-] (stereo not drawn) [Compound 300]
99 | CC[N+](CCCNC(=O)Nc1ccccc1)(CCc1ccc(Cl)cc1)Cc1ccc([N+](=O)[O-])cc1.[I-] (stereo not drawn) [compound 337]
100 | CC[N+](CCCNC(=O)Nc1ccccc1)(CCc1ccc(Cl)cc1)Cc1ccc(OC)cc1.[I-] (stereo not drawn) [compound 344]
92 | CC[N+](CC)(CCCNC(=O)Nc1ccccc1)CCc1ccc(C)cc1.[I-] [Compound 307]
100 | CC[N+](CCCNC(=O)Nc1ccccc1)(CCc1ccc(Cl)cc1)Cc1cccc(Cl)c1.[I-] (stereo not drawn) [compound 329]
100 | CC[N+](CCCNC(=O)Nc1ccccc1)(CCc1ccc(Cl)cc1)Cc1ccc(Br)cc1.[I-] (stereo not drawn) [compound 340]
100 | CC[N+](CCCNC(=O)Nc1ccccc1)(CCc1ccc(Cl)cc1)Cc1ccccc1-c1ccccc1.[I-] (stereo not drawn) [compound 341]
66 | CC[N+](CC)(CCCNC(=O)Nc1ccccc1)CCc1ccc(OC)cc1.[I-] [Compound 304]
86 | CC[N+](CCCNC(=O)Nc1ccc(Br)cc1)(CCCC(=O)OC)C(C)c1ccccc1.[I-] (stereo not drawn) [compound 313]

Same assay, conditions: U-937; 10 µM test compound; eotaxin 1 x 10^-9 M; CCR3/U937 cells (Table 3a)

Compound | inhibition at 10 µM [%]
C[C@H](c1ccc(Br)cc1)N(CCCNC(=O)Nc1ccc(Br)cc1)CCCC(=O)O [Compound 258, 4-[[3-(4-Bromophenylureido)propyl] [(1R)-1-(4-bromophenyl)ethyl]amino]butanoic acid] | 100
C[C@@H](c1ccc(Br)cc1)N(CCCNC(=O)Nc1ccc(Br)cc1)CCCC(=O)O [Compound 293, 4-[[3-(4-Bromophenylureido)propyl][(1S)-1-(4-bromophenyl)ethyl]amino]butanoic acid] | 95

Second part, the compound after the results:

inhibition at 10 µM [%] | Compound
89 | CC(c1ccc(Cl)cc1)N(CCCNC(=O)Nc1ccc(Br)cc1)CCCC(=O)O (stereo not drawn) [Compound 272, 4-[[3-(4-Bromophenylureido)propyl][1-(4-chlorophenyl)ethyl]amino]butanoic acid]
100 | O=C(O)CCCN(CCCNC(=O)Nc1ccc(Cl)cc1)C1CCCc2ccccc21 (stereo not drawn) [Compound 171, 4-[[3-(4-Chlorophenylureido)propyl](1,2,3,4-tetrahydro-1-naphthyl)amino]butanoic acid]

Same assay, conditions: U-937; 10 µM test compound; eotaxin 1 x 10^-9 M; CCR3/U937 cells (Table 3c)

inhibition at 10 µM [%] | Compound
100 | CC[N+](CCCNC(=O)Nc1ccccc1)(CCc1ccc(Cl)cc1)Cc1cccc(F)c1 (stereo not drawn) [Compound 352, [3-(Phenylureido)propyl][2-(4-chlorophenyl)ethyl](3-fluorobenzyl)ethylammonium iodide]
100 | CC[N+](CC)(CCCNC(=O)Nc1ccccc1)CCc1cccc(Cl)c1 [Compound 309, [3-(Phenylureido)propyl][2-(3-chlorophenyl)ethyl]diethylammonium iodide]
100 | CC[N+](CCCCC(=O)OC)(CCCNC(=O)Nc1ccccc1)CCc1ccc(Cl)cc1 (stereo not drawn) [Compound 320, [3-(Phenylureido)propyl][2-(4-chlorophenyl)ethyl][4-(methoxycarbonyl)butyl] ethylammonium iodide]

Same assay, conditions: test compound 0.1 µg/ml; eotaxin 1 x 10^-9 M; CCR3/U937 transfectants; 37 °C, 1 hour

Compound | Chemotaxis Assay 0.1 µg/ml (inhibition %) [%]
CC[N+](CCF)(CCCNC(=O)Nc1ccc(OC)cc1)CCc1cccc(Cl)c1.[I-] (stereo not drawn) [compound 451] | 92
CC[N+](CCF)(CCCNC(=O)Nc1ccc(OC)cc1)CCc1ccc(Cl)cc1Cl.[I-] (stereo not drawn) [compound 452] | 59
CC[N+](CCCNC(=O)Nc1ccccc1)(CCOCCOC)CCc1cccc(F)c1.[I-] (stereo not drawn) [compound 416] | 69
CCC(CC)C[N+](CC)(CCCNC(=O)Nc1ccccc1)CCc1cccc(F)c1.[I-] (stereo not drawn) [compound 431] | 96
CC[N+](CCF)(CCCNC(=O)Nc1ccc(Br)cc1)CCc1ccc(Cl)c(Cl)c1.[I-] (stereo not drawn) [compound 384] | 76
CC[N+](CCCNC(=O)Nc1ccccc1)(CCOCCOC)CCc1cccc(OC)c1.[I-] (stereo not drawn) [compound 406] | 43

Next, values leading:

Chemotaxis Assay 0.1 µg/ml (inhibition %) [%] | Compound
100 | CC[N+](CCF)(CCCNC(=O)Nc1ccccc1)CCc1ccc(Cl)c(Cl)c1.[I-] (stereo not drawn) [compound 434]
52 | CC[N+](CCCNC(=O)Nc1ccccc1)(CCc1cccc(Cl)c1)CCC(C)C.[I-] (stereo not drawn) [compound 407]
